The record followed here is US10858335B2 (Rigel Pharmaceuticals, Inc., priority 2014, dated 2020).

pIC50: −log10 of the molar value.

One assay concerns GDF8 signaling (p-SMAD-3 (Ser423/425)). Description: AlphaScreen SureFire SMAD3 (p-Ser423/425) assay, GDF8-stimulated cells (GDF pSMAD). It is filed as cell-based. The note with it: MPC11; GDF8-stimulated; p-SMAD3 AlphaScreen; read-out: GDF pSMAD (MPC11) (inhibition of GDF8 signaling). The source says: Biological Example 1: AlphaScreen® SureFire® SMAD3 (p-Ser423/425) Assay
The p-SMAD-3 (Ser423/425) SureFire® assay has been designed to measure the phosphorylation of endogenous cellular p-SMAD-3 (Ser423/425) in cell lysates and is a system for the screening of both modulators of receptor activation (e.g. agonists and antagonists) as well as agents acting intracellularly, such as small molecule inhibitors of upstream events. The assay will measure p-SMAD-3 (Ser423/425) activation by either cloned or endogenous receptors, and can be applied to primary cells.
P-SMAD-3 (Ser423/425) SureFire® Assay Protocols
Step A: Preparation of Buffers
1× Lysis buffer: 1 ml of 5× Lysis buffer was diluted with 4 ml of sterile water. After dilution, excess 1× Lysis buffer can be frozen and thawed up to 5 times without loss in activity.
Activation buffer: The buffer was warmed slowly to 37° C. and gently mixed to re-suspend. Activation buffer can be stored at room temperature with no loss in activity.
Reaction buffer: The buffer was kept at 4° C. while in use.
AlphaScreen® Protein A IgG Kit: The kit was stored at 4° C. in the dark.
Reaction buffer+Activation buffer+AlphaScreen® Acceptor beads: Reaction buffer (40 parts), Activation Buffer (10 parts) and Acceptor beads (1 part) were mixed and the mixture was stored at room temperature and used the same day. Mixture was added to 384-well plates; excess mixture was discarded.
Dilution buffer+AlphaScreen® Donor beads: Dilution buffer (20 parts) and Donor beads (1 part) were mixed and the mixture was stored at room temperature and used the same day. Excess mixture was discarded.
Assay control samples: After reconstitution in 250 μl of water, lysates were at −20° C. in single use aliquots.
Step B: Preparation of Samples and Cells
96-well Assay Protocol for 293FT and RMS13 adherent cells can be carried out manually or in high throughput with liquid handling robots.
The cells (80 μL of cells for 96 well plates) were plated in collagen coated tissue culture plates in RPMI or FreeStyle medium (Invitrogen) and incubated overnight. For manual analysis, 6 plates for GDF8, 6 plates for TGFβ, and optionally 6 plates for AlkSca(ALK5 constitutively active) were used.
The compound dilution plates were prepared as follows: 12 μL of DMSO was transferred into first column of 96-well plate, and 16 μL of DMSO was transferred into columns 2-12 of the 96-well plate. 12 μL of compound solution was transferred into first column of the DMSO-containing 96-well plate. Three-fold dilution was performed up to column 10 of the DMSO-containing 96-well plate.
Step C: Treatment and Analysis
The plate containing cells were treated with compounds for about 10 minutes, and then ligand was added. GDF8 or TGFb was added to plates to stimulate. 293FL cells were stimulated for 90 minutes at 37° C.; and RMS13 cells were stimulated for 60 minutes at 37° C. The medium was then removed from the cells, and 1× Lysis Buffer (about 25 μL) was added and the plate was gently agitated on plate shaker for 5-10 minutes.
The lysate (5 μL) was then placed into 384-well shallow plates avoiding the generation of bubbles. To this, the Reaction Buffer+Activation Buffer+AlphaScreen® Acceptor beads mixture (5 μL) was added. The plate was sealed with adhesive cover and shielded from light (e.g., with metal foil), and agitated gently on plate shaker for 2 hours at room temperature.
Dilution buffer+AlphaScreen® Donor beads (2 μL) was then added, and the plate was intubated on the plate shaker for an additional 1½ hours. After completion, the plate was read on Synergy-4 or Enspire plate reader, using AlphaScreen® pSMAD3® settings.
Representative results for inhibition of GDF8 signaling are shown in Table 2(data=GDF pSMAD (MPC11) (μM)): […]
A general note: Alpha assays give light when donor and acceptor beads are brought close together.
Consider `Nc1ncnc2ccc(-c3cccnc3-c3cc(Cl)c(F)cc3F)cc12` [compound 819, 6-(2-(5-Chloro-2,4-difluorophenyl)pyridin-3-yl)quinazolin-4-amine], for which the pIC50 is 6.92.

The same assay, now with this note: Mus musculus, MPC-11, GDF8-stimulated pSMAD3, MPC11; tested as the salt form given; read-out: GDF pSMAD (MPC11) (μM), inhibition of GDF8 signaling.
On to `Cc1cc(-c2ncccc2-c2ccc3ncc(C#N)n3c2)c(C)cc1F` [compound 1063], for which the IC50 came out at 4.45 µM.

Staying with this assay, now noted: Mus musculus, MPC-11, MPC11; GDF8-stimulated; p-SMAD3 AlphaScreen; read-out: GDF pSMAD (MPC11) (inhibition of GDF8 signaling).
Turning to `Cc1cc(-c2ncc(COCC(=O)N(C)C)cc2-c2ccc3nccnc3c2)ccc1F` [compound 231, 2-((6-(4-Fluoro-3-methylphenyl)-5-(quinoxalin-6-yl)pyridin-3-yl)methoxy)-N,N-dimethylacetamide], the pIC50 was 4.97. Still for that read-out and setting: in the case of `CN1CCC(NC(=O)c2cnc3ccc(-c4cccnc4-c4cc(F)c(F)cc4F)cn23)CC1` [compound 710, N-(1-Methylpiperidin-4-yl)-6-(2-(2,4,5-Trifluorophenyl)pyridin-3-yl)imidazo[1,2-a]pyridine-3-carboxamide] it was 5.91; in that of `Cc1cc(-c2ncccc2-c2ccc3ncc(C(=O)N[C@H]4CN5CCC4CC5)n3c2)ccc1F` [compound 791, (R)-6-(2-(4-Fluoro-3-methylphenyl)pyridin-3-yl)-N-(quinuclidin-3-yl)imidazo[1,2-a]pyridine-3-carboxamide], 5.27; in that of `Cc1cc(-c2ncccc2-c2ccc3[nH]ncc3c2)ccc1F` [Compound 63, 5-(2-(4-Fluoro-3-methylphenyl)pyridin-3-yl)-1H-indazole], 6.85. The same measure, in the same setting: in the case of `Cc1cccc(-c2ncccc2-c2ccc3ncn(CCCN4CCOCC4)c3c2)c1` [compound 250, 4-(3-(6-(2-m-Tolylpyridin-3-yl)-1H-benzo[d]imidazol-1-yl)propyl)morpholine] it was 4.98; in that of `Cc1cc(-c2ncc(NS(C)(=O)=O)cc2-c2ccc3[nH]ncc3c2)ccc1F` [Compound 30, N-(6-(4-Fluoro-3-methylphenyl)-5-(1H-indazol-5-yl)pyridin-3-yl)methanesulfonamide], 5.43; in that of `Cc1cc(-c2ncccc2-c2ccc3ncc(C(=O)NC4CCN(C)CC4)n3c2)ccc1F` [compound 592, 6-(2-(4-Fluoro-3-methylphenyl)pyridin-3-yl)-N-(1-methylpiperidin-4-yl)imidazo[1,2-a]pyridine-3-carboxamide], 6.69. Still for that read-out and setting: in the case of `Cc1ccc(Nc2ncnc3ccc(-c4cccnc4-c4ccc(F)c(Cl)c4)cc23)cn1` [compound 491, 6-(2-(3-Chloro-4-fluorophenyl)pyridin-3-yl)-N-(6-methylpyridin-3-yl)quinazolin-4-amine] it was 5.04; in that of `COC(=O)c1cnc2ccc(-c3cccnc3-c3ccc(F)c(C)c3)cn12` [compound 685, Methyl 6-(2-(4-fluoro-3-methylphenyl)pyridin-3-yl)imidazo[1,2-a]pyridine-3-carboxylate], 6.82; in that of `Cc1cccc(-c2ncccc2-c2ccc3ncc(CO)n3c2)c1` [compound 566, (6-(2-(m-Tolyl)pyridin-3-yl)imidazo[1,2-a]pyridin-3-yl)methanol], 6.47. Regarding `Cc1cc(-c2ncccc2-c2ccc3ncc(C(=O)NCCCN)n3c2)ccc1F` [compound 682, N-(3-Aminopropyl)-6-(2-(4-fluoro-3-methylphenyl)pyridin-3-yl)imidazo[1,2-a]pyridine-3-carboxamide], the pIC50 was 6.27.

For `CN(C)CCCOc1ncnc2ccc(-c3cccnc3-c3ccc(F)c(Cl)c3)cc12` [compound 435, 3-((6-(2-(3-Chloro-4-fluorophenyl)pyridin-3-yl)quinazolin-4-yl)oxy)-N,N-dimethylpropan-1-amine], the pIC50 is 6.22. On the same count and under the same terms, in the case of `CC(=O)c1cnc2ccc(-c3cccnc3-c3cccc(C)c3)cn12` [compound 587, 1-(6-(2-(m-Tolyl)pyridin-3-yl)imidazo[1,2-a]pyridin-3-yl)ethan-1-one] it was 6.44; in that of `Cc1cc(-c2ncccc2-c2ccc3c(=O)nc[nH]c3c2)ccc1F` [compound 348, 7-(2-(4-Fluoro-3-methylphenyl)pyridin-3-yl)quinazolin-4(1H)-one], 5.89; in that of `Fc1cccc(-c2ncccc2-c2ccc3[nH]ncc3c2)c1` [Compound 65, 5-[2-(3-Fluorophenyl)pyridin-3-yl]-1H-indazole], 5.65. Consider `Fc1ccc(-c2ncccc2-c2ccn3nccc3n2)cc1Cl` [compound 914, 5-(2-(3-Chloro-4-fluorophenyl)pyridin-3-yl)pyrazolo[1,5-a]pyrimidine], for which the pIC50 is 6.90. Same read-out and setting: in the case of `Clc1cccc(-c2ncccc2-c2ccc3nccnc3n2)c1` [compound 739, 6-(2-(3-Chlorophenyl)pyridin-3-yl)pyrido[2,3-b]pyrazine] it was 5.63; in that of `Cc1cnc(-c2cc(Cl)ccc2F)c(-c2ccn3ncnc3c2)c1` [compound 866, 7-(2-(5-Chloro-2-fluorophenyl)-5-methylpyridin-3-yl)-[1,2,4]triazolo[1,5-a]pyridine], 6.60. Same read-out and setting: in the case of `Cc1cc(-c2ncc(NCc3ccncc3)cc2-c2ccc3nccnc3c2)ccc1F` [compound 245, 6-(4-Fluoro-3-methylphenyl)-N-(pyridin-4-ylmethyl)-5-(quinoxalin-6-yl)pyridin-3-amine] it was 5.90; in that of `Cc1cc(-c2ncc(Nc3ccncc3)cc2-c2ccc3ncsc3c2)ccc1F` [compound 311, 5-(Benzo[d]thiazol-6-yl)-6-(4-fluoro-3-methylphenyl)-N-(pyridin-4-yl)pyridin-3-amine], 5.33.

For `Cc1cc(-c2ncccc2-c2ccc3ncc(C(=O)NCC45CCCN4CCC5)n3c2)ccc1F` [compound 802, 6-(2-(4-Fluoro-3-methylphenyl)pyridin-3-yl)-N-((tetrahydro-1H-pyrrolizin-7a(5H)-yl)methyl)imidazo[1,2-a]pyridine-3-carboxamide], the pIC50 was 5.23. Same read-out and setting: in the case of `Fc1ccc(-c2ncccc2-c2ccn3nccc3n2)cc1C1CC1` [compound 896, 5-(2-(3-Cyclopropyl-4-fluorophenyl)pyridin-3-yl)pyrazolo[1,5-a]pyrimidine] it was 7.03. Same read-out and setting: in the case of `Nc1ncnc2ccc(-c3cccnc3-c3ccc(F)c(F)c3)cc12` [compound 453, 6-(2-(3,4-Difluorophenyl)pyridin-3-yl)quinazolin-4-amine] it was 6.09; in that of `COc1cc(-c2ncccc2-c2ccc3ncnc(N)c3c2)c(F)cc1F` [compound 502, 6-(2-(2,4-Difluoro-5-methoxyphenyl)pyridin-3-yl)quinazolin-4-amine], 6.25; in that of `Cc1ccc(Oc2ncnc3ccc(-c4cccnc4-c4ccc(F)c(C)c4)cc23)cn1` [compound 432, 6-(2-(4-Fluoro-3-methylphenyl)pyridin-3-yl)-4-((6-methylpyridin-3-yl)oxy)quinazoline], 6.29. The same measure, in the same setting: in the case of `Fc1ccc(-c2ncccc2-c2ccc3cn[nH]c3c2)cc1` [Compound 101, 6-(2-(4-Fluorophenyl)pyridin-3-yl)-1H-indazole] it was 4.95; in that of `Cc1cccc(-c2ncccc2-c2ccc3nc(C)cn3c2)c1` [compound 532, 2-Methyl-6-(2-(m-tolyl)pyridin-3-yl)imidazo[1,2-a]pyridine], 4.75; in that of `Cc1cnc(-c2cc(Cl)c(F)cc2F)c(-c2ccn3ncnc3c2)c1` [compound 865, 7-(2-(5-Chloro-2,4-difluorophenyl)-5-methylpyridin-3-yl)-[l 1,2,4]triazolo[1,5-a]pyridine], 6.22.
